Like-named read-outs stand apart in the source and are kept apart here.
Legend:
[1] = Orienting acute toxicity in mice; conditions: mouse, in vivo, po, observation period 7 days
Description: The orienting acute toxicity of the compounds was determined after administering a dose to groups of 6 or 10 mice each with body weights between 10 and 26 gm (observation period: 7 days).

[2] = tested on: tonic extensor spasm of the rear legs of male mice under maximum electric shock; assay: Anticonvulsant activity in mice (inhibition of tonic extensor spasm under maximum electric shock); type: in vivo, male SPF mice (Chbb:NMRI); conditions: Mus musculus, po, p.o., 10 mice/dose
Description: 1. Anticonvulsant activity in mice
The anticonvulsant activity was tested as the inhibition of the tonic extensor spasm of the rear legs of male mice under maximum electric shock.
The test animals were male SPF mice (Chbb:NMRI) weighing 20 to 26 g which, up to one hour before oral administration of the test compound, had access to standard feed and drinking water.
The test procedure was based on that of SWINYARD, BROWN and GOODMAN (J. Pharmacol. Exp. Ther. 106, 319 [1952]). The electrical shock equipment was manufactured in accordance with information provided by WOODBURY and DAVENPORT (Arch. int. Pharmacodyn. 92, 97 [1952]). The electrical stimuli were applied to the heads of the animals above the eyes using chamois-covered steel ball electrodes moistened with a 0.9% NaCl solution. The stimulus lasted 0.2 sec. using alternating current of 50 Hz and 50 mA. There was a […] and then a tonic stretching spasm of the extremities in the case of all the controls.
The substance to be tested was suspended in a 1% tylose slurry and was perorally administered in a volume of 0.1 ml/10 gm mouse to 10 mice/dose. […], and the ED50 values were determined as the dosages sufficient to protect 50% of the animals against the tonic stretching spasm of the rear extremities, either graphically or by the method of LITCHFIELD and WILCOXON (J. Pharmacol. Exp. Ther. 96, 99 [1949]).

[3] = 0.5 h, shock 30 minutes after administration, read-out: ED50, 30 minutes
[4] = 2.5 h, shock 150 minutes after administration, read-out: ED50, 150 minutes
[5] = 5 h, shock 300 minutes after administration, read-out: ED50, 300 minutes

Compound: N/C(=C1/Sc2ccccc2C1=O)c1ccccc1 [A, (E)-2-[(amino)phenylmethylene]-benzo[b]thiophen-3(2H)-one]
- LD50 at 168 h [1]: 2400 mg/kg
- ED50 [2, 3]: 12.8 mg/kg
- ED50 [2, 4]: 37 mg/kg
- ED50 [2, 5]: 46 mg/kg

Compound: O=C1/C(=C(\NCCO)c2ccccc2)Sc2ccccc21 [D, (E)-2-{[(2-hydroxy-ethyl)amino]phenylmethylene}benzo[b]thiophen-3(2H)-one]
- LD50 at 168 h [1]: > 1000 mg/kg
- ED50 [2, 3]: 33 mg/kg
- ED50 [2, 4]: 41 mg/kg
- ED50 [2, 5]: 42.5 mg/kg

Compound: CN/C(=C1/Sc2ccccc2C1=O)c1ccccc1 [B, (E)-2-[(methylamino)phenylmethylene]-benzo[b]thiophen-3(2H)-one]
- LD50 at 168 h [1]: > 1000 mg/kg
- ED50 [2, 3]: 90 mg/kg
- ED50 [2, 4]: 38 mg/kg
- ED50 [2, 5]: 49 mg/kg

Compound: N/C(=C1/Sc2ccccc2C1=O)c1ccccc1Cl [C, (E)-2-[(amino)-(2-chloro-phenyl)methylene]-benzo[b]thiophen-3(2H)-one]
- LD50 at 168 h [1]: 500 to 1000 mg/kg
- ED50 [2, 3]: 7 mg/kg
- ED50 [2, 4]: 4.4 mg/kg
- ED50 [2, 5]: 5 mg/kg

Compound: Cc1ccccc1/C(N)=C1\Sc2ccccc2C1=O [E, (E)-2-[(amino)-(2-methyl-phenyl)methylene]-benzo[b]-thiophen-3(2H)-one]
- LD50 at 168 h [1]: > 1000 mg/kg
- ED50 [2, 3]: 22.8 mg/kg
- ED50 [2, 4]: 13.3 mg/kg
- ED50 [2, 5]: 15.7 mg/kg

Compound: CCN/C(=C1/Sc2ccccc2C1=O)c1ccccc1 [F, (E)-2-[(ethylamino)phenylmethylene]-benzo[b]thiophen-3(2H)-one]
- LD50 at 168 h [1]: > 1000 mg/kg
- ED50 [2, 3]: 22.5 mg/kg
- ED50 [2, 4]: 54.6 mg/kg
- ED50 [2, 5]: 79 mg/kg
